± gives the expanded uncertainty stated by the source.
Columns and labels:
[1] = 293.15 K, 101.33 kPa, Liquid; for viscosity: Capillary tube (Ostwald / Ubbelohde) method
[2] = cn = amount concentration of the nth substance listed, in mol/dm3; conditions: 293.15 K, 101 kPa, Liquid; for viscosity: Capillary tube (Ostwald / Ubbelohde) method; for electrical conductivity: Frequency=0.001 MHz, digital bridge-type conductivity meter; for mass density: Vibrating tube method
[3] = wn = mass fraction of the nth substance listed; conditions: 293.15 K, 101.33 kPa, Liquid; for viscosity: Capillary tube (Ostwald / Ubbelohde) method; for mass density: Vibrating tube method
[4] = refractive index (Na D-line) (dimensionless); conditions: 293.15 K; 101.33 kPa; Liquid; Standard Abbe refractometry

O [water]
Conditions	viscosity [mPa·s]
[1]	1.008 ± 0.007

O=S(=O)([O-])[O-].[Zn+2] [zinc sulfate] + O
[2]
Conditions	electrical conductivity [S/m]	mass density [kg/m3]	viscosity [mPa·s]
c1 = 5e-05	0.00119 ± 1e-05	998.22 ± 0.19	–
c1 = 0.00011	0.00229 ± 1e-05	998.23 ± 0.19	–
c1 = 0.00019	0.00391 ± 2e-05	998.25 ± 0.18	–
c1 = 0.00042	0.0084 ± 3e-05	998.29 ± 0.18	–
c1 = 0.00063	0.01218 ± 5e-05	998.32 ± 0.16	–
c1 = 0.00083	0.0154 ± 6e-05	998.36 ± 0.17	–
c1 = 0.00101	0.01833 ± 7e-05	998.39 ± 0.16	–
c1 = 0.00127	0.02201 ± 9e-05	998.41 ± 0.15	–
c1 = 0.0084	–	999.63 ± 0.18	1.015 ± 0.007
c1 = 0.0194	–	1001.48 ± 0.17	1.022 ± 0.007
c1 = 0.0403	–	1004.95 ± 0.18	1.036 ± 0.007
c1 = 0.0545	–	1007.37 ± 0.15	1.045 ± 0.007
c1 = 0.0714	–	1009.43 ± 0.16	1.054 ± 0.007
c1 = 0.0795	–	1011.4 ± 0.19	1.062 ± 0.007
c1 = 0.0979	–	1014.39 ± 0.17	1.074 ± 0.008
c1 = 0.1391	–	1021.1 ± 0.17	1.103 ± 0.008
c1 = 0.1756	–	1027.12 ± 0.17	1.127 ± 0.008
c1 = 0.1998	–	1030.93 ± 0.17	1.144 ± 0.008

O [water] + OCCO
Conditions	viscosity [mPa·s]
[3], w2 = 0	1.008 ± 0.007

OCCO [1,2-ethanediol]
Conditions	refractive index	viscosity [mPa·s]
[1]	–	20.81 ± 0.3
[4]	1.4319 ± 0.0007	–

Conditions	mass density [kg/m3]
[1], Vibrating tube method	1113.23 ± 0.3

OCCO [1,2-ethanediol] + O
[3]
Conditions	mass density [kg/m3]	viscosity [mPa·s]
w1 = 0.1	1011.1 ± 0.05	1.293 ± 0.009
w1 = 0.2	1024.49 ± 0.05	1.671 ± 0.012
w1 = 0.3	–	2.177 ± 0.016
w1 = 0.4	1049.89 ± 0.12	2.837 ± 0.022
w1 = 0.5	1062.42 ± 0.09	3.558 ± 0.029
w1 = 0.6	–	4.724 ± 0.041
w1 = 0.7	1085.2 ± 0.11	6.36 ± 0.06
w1 = 0.8	1095.34 ± 0.11	8.003 ± 0.081
w1 = 0.9	1103.7 ± 0.13	14 ± 0.17

— the NIST ThermoML archive (doi:10.1016/j.jct.2006.01.011)
